The source of these data is EP0972448A2, “Parasitic mite control on beneficial insects” (American Cyanamid Company, priority 1998, dated 2000).

Common to all, as to format: in vivo
For series [1], the system named is Varroa jacobsoni. In words: Field evaluation against Varroa jacobsoni in infested beehives, stickyboard mite count. The conditions noted are these: two strips with 18% tebufenpyrad in 60:40 beeswax:lard, count taken 24 hours after treatment. The text has this: In this evaluation, two Varroa jacobsoni infested beehives are monitored for the extent of infestation using stickyboards inserted at the bottom of the hive. Data are presented as the number of mites trapped on the stickyboard per day. Two strips (2.5 x 17cm) containing 18% tebufenpyrad dissolved in a 60:40 beeswax:lard (Crisco®) mixture are inserted into each hive brood chamber as per standard practice. One day after treatment, the stickyboards are removed and the dead mites counted.

For series [2], the system named is Varroa jacobsoni (Varroa mites). As to the kind of experiment: Efficacy against Varroa jacobsoni parasites on topically treated infested honeybees. As to conditions: 1 µl acetone droplet on dorsal abdomen of bee, 5 days at 31°C. Here is the method: (§1) In this evaluation, honeybees (Apis mellifera) taken from hives which are 70-90% infested with Varroa jacobsoni (Varroa mites) are chilled to immobilize the bees. A 1 µl droplet of an acetone solution of tebufenpyrad is applied to the dorsal abdomen of each bee. Control bees receive 1 µl droplet of acetone. A total of 50-52 bees are treated for each dose rate tested. Treatment dose rates are based upon the LD50 (dose rate required to obtain 50% mortality of healthy uninfected bees) of tebufenypyrad and are set at 10% of the LD50 and subsequent 10-fold dilution thereof. The treated bees are placed in an incubator at 31°C in the dark and fed 50% sugar water ad libitum for 5 days. After incubation, the bees are examined for mortality and mite infestation. The results are shown in Table I below, as % mortality of the total of the bees and the total of the mites.

For series [3], the system named is Acarapis woodi (trachea mites). As to the kind of experiment: Efficacy against Acarapis woodi parasites, contact with treated glass slides. The conditions noted are these: slides dipped in 500 ppm acetone solution. As to the method: In this evaluation, honeybees (Apis mellifera) which are infested with Acarapis woodi (trachea mites) are dissected to remove the infested tracheae. Glass microscope slides are dipped into acetone solutions of tebufenpyrad (500 ppm)and the acetone is allowed to evaporate. Infested tracheae are placed directly on the treated slides. The mites are removed from the tracheae by dissection and forced to walk across the treated area. The elapsed time is recorded for 100% mortality, i.e. no movement is observed upon agitation.

For series [4], the system named is honeybees (Apis mellifera). In words: Mortality of topically treated honeybees in the Varroa jacobsoni evaluation. The conditions noted are these: 1 µl acetone droplet on dorsal abdomen, 5 days at 31°C. As to the method: as §1

For the compound `CCc1nn(C)c(C(=O)NCc2ccc(C(C)(C)C)cc2)c1Cl` [Tebufenpyrad, N-(4-t-butylbenzyl)-4-chloro-3-ethyl-1-methylpyrazole-5-carboxamide], the Treatment mites/day in series [1] (Hive 1, pretreatment 101 mites/day) turned out to be 1777 mites/day; in series [1] (Hive 2, pretreatment 66 mites/day) it was 1080 mites/day. The “% Mortality Parasites” value is reported as 58% in series [2] (dose 0.006 µg/bee), 44% in series [2] (dose 0.06 µg/bee) and 92% in series [2] (dose 0.6 µg/bee). The “Time required in minutes to achieve 100% mortality” value in series [3] (Rep. 1, 7 mites) amounted to 8.5 min; in series [3] (Rep. 2, 10 mites) it was 8 min; in series [3] (Rep. 3, 7 mites) it was 8 min. In addition, the “% Mortality Bees” value in series [4] (dose 0.006 µg/bee) worked out at 24%; in series [4] (dose 0.06 µg/bee), 25%; in series [4] (dose 0.6 µg/bee) it was 28%.
